Drawing on US20260098030A1, “NEGATIVE ALLOSTERIC MODULATORS OF METABOTROPIC GLUTAMATE RECEPTOR 2” (Vanderbilt University, priority 2022, published 2026), this text covers IC50 for 17 molecules.

SMILES strings stand for the structures. pIC50: −log10 of the molar value.

The target in the experiment is T1, rat mGlu2 (Rattus norvegicus, UniProt P31421).
T1 construct: expressed in transfected cells; host or cells: HEK-293 cells stably co-expressing GIRK channels
In words: mGlu GIRK cell-based thallium flux assay, rat mGlu2. The settings on record: HEK-293 cells co-expressing rat mGlu2 and GIRK, EC80 glutamate. As to the method: Human embryonic kidney (HEK-293) cell lines stably co-expressing human or rat mGlu2 and G protein-coupled inwardly rectifying potassium (GIRK) channels, or human mGlu3 and GIRK, were used for in vitro evaluation of compound activity in thallium flux assay using a fluorescent thallium indicator dye.
The day before the assay, GIRK cells co-expressing human mGlu3, human or rat mGlu2, as described above, were plated in black-walled, clear-bottomed, amine-coated 384-well plates at a density of 15,000 cells/20 μL/well in the assay medium (glutamine-depleted basal DMEM supplemented with 10% dialyzed FBS, 20 mM HEPES, 1 mM sodium pyruvate). Cells were incubated at 37° C. in the presence of 5% CO2. The next day, assay buffer (Hanks balanced salt solution, 20 mM HEPES, 4.16 mM sodium bicarbonate, pH 7.2) was prepared to dilute compounds and Thallos AM fluorescent dye solution. The 2× Thallos dye solution (final concentration 0.34 μM to the cells) was prepared by mixing the dye stock (2.97 mM in DMSO) to 1:1 with 10% pluronic acid before adding to the assay buffer. Cells were washed with assay buffer using a microplate washer to remove the medium, resulting in 20 μL of buffer remaining in each well. Immediately, 20 μL of 2× Thallos dye solution was added to cells, and incubated for one hour at 25° C. During the cell dye loading incubation period, a 10-point concentration serial dilution of compound was created from a 10 mM DMSO compound stock by performing a 1:3 serial dilution in DMSO using the Bravo liquid handler. The 2× compound plate was generated by transferring 0.24 μL of the diluted compound in each well to a daughter plate using an Echo acoustic liquid handler. This is further diluted in 40 μL assay buffer, resulting in a range from 30 μM to 1.5 nM final concentration in the assay. The agonist plate (5×) was prepared to include EC80 glutamate concentration (a concentration to elicit 80% of a maximally effective glutamate concentration) in thallium buffer (125 mM […], 1 mM magnesium sulfate, 1.8 mM calcium sulfate, 5 mM glucose, 10 mM HEPES, pH 7.2, 12.5 mM thallium sulfate).
After dye-loading, cell plates were washed with assay buffer to remove excess extracellular dye using a microplate washer, resulting in 20 μL of buffer remaining in each well. After a ten-minute equilibration period, cell, compound and agonist plates were loaded into a Hamamatsu μCell kinetic imaging plate reader equipped with liquid handler to monitor fluorescence changes at 480 nm excitation and 540 nm emission settings. Briefly, after collection of baseline fluorescence, 20 μL of compound was added and incubated for two minutes and twenty seconds. This is immediately followed by adding 10 μL of glutamate-thallium buffer to the wells containing compound. The fluorescent signal was monitored an additional 2.5 minutes after the glutamate addition. Multiple reference wells containing no compound received either no glutamate (for a baseline reference), EC80 glutamate, or ECmax glutamate (for normalization to maximum response). Fluorescence was measured throughout the experiment at a frequency of 1 measurement per every 2 seconds before the glutamate addition and a frequency of 1 measurement per every 1 second after the glutamate addition. Each compound concentration series occurred one time in each plate, and replicates from two or three plates were used in each experimental run. Thallium solutions were handled and disposed of according to guidelines from the Vanderbilt University Chemical Safety department.
Data were normalized using a static ratio function (F/F0) by dividing every fluorescent measurement by the initial fluorescent value for the corresponding well. The increase in signal resulting from the glutamate/thallium addition of the second add was measured by determining the slope from 3 seconds to 13 seconds after the addition. […]

In general, pIC50 refers to −log10 of the IC50, conventionally taken in molar units. A low value points to a large IC50.

T1 sequence (P31421 19-872): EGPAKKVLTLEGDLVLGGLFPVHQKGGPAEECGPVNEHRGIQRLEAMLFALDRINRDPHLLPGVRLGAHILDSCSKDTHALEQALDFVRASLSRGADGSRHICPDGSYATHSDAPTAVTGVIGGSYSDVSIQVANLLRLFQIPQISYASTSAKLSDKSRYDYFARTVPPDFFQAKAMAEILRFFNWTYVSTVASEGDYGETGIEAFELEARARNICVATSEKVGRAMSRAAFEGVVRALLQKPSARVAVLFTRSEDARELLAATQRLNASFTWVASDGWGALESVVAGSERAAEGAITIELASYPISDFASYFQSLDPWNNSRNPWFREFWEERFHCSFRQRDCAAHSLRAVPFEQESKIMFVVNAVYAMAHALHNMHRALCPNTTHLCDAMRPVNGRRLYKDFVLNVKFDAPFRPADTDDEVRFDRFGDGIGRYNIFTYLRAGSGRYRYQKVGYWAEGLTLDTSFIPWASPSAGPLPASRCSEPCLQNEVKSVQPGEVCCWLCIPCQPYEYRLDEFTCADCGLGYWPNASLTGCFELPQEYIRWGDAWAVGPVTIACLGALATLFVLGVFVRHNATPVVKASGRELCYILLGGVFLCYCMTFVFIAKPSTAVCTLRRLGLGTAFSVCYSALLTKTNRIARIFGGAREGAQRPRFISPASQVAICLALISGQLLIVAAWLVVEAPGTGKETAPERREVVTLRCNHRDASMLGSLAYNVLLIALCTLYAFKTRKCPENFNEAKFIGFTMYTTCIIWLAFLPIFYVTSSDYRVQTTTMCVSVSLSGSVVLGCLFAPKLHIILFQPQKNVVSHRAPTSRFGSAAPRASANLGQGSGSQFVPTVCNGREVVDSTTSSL

Molecule `O=C1NCc2cc(-c3cccnc3F)c(-c3ccc(F)cc3F)cc21` [Compound 72, 6-(2,4-difluorophenyl)-5-(2-fluoropyridin-3-yl)isoindolin-1-one] had a pIC50 of 6.00. In the case of `Cc1cc(F)ncc1-c1cc2c(cc1-c1ccc(F)cc1F)C(=O)NC2` [Compound 81, 6-(2,4-difluorophenyl)-5-(6-fluoro-4-methylpyridin-3-yl)isoindolin-1-one] it was 5.94.

Regarding `N#Cc1cc(-c2cc3c(cc2-c2ccc(F)cc2F)C(=O)NC3)ccn1` [Compound 104, 4-(6-(2,4-difluorophenyl)-1-oxoisoindolin-5-yl)picolinonitrile], the pIC50 was < 5.00. In the case of `N#Cc1ccc(-c2cc3c(cc2-c2ccc(F)cc2F)C(=O)NC3)c(F)c1` [Compound 103, 4-(6-(2,4-difluorophenyl)-1-oxoisoindolin-5-yl)-3-fluorobenzonitrile] it was 5.54; in that of `COc1ncccc1-c1cc2c(cc1-c1ccc(F)cc1F)C(=O)NC2` [Compound 100, 6-(2,4-difluorophenyl)-5-(2-methoxypyridin-3-yl)isoindolin-1-one], 5.95. `O=C1NCc2cc(C3CCCCC3)c(-c3ccc(F)cc3)cc21` [Compound 63, 5-cyclohexyl-6-(4-fluorophenyl)isoindolin-1-one] had a pIC50 of 5.58. In turn, `O=C1NCc2cc(-c3ccc4[nH]ccc4c3)c(-c3ccc(F)cc3F)cc21` [Compound 89, 6-(2,4-difluorophenyl)-5-(1H-indol-5-yl)isoindolin-1-one] had a pIC50 of 6.03. To `Cc1nnc(-c2ccc(-c3cc4c(cc3-c3ccc(F)cc3F)C(=O)NC4)cc2F)o1` [Compound 112, 6-(2,4-difluorophenyl)-5-(3-fluoro-4-(5-methyl-1,3,4-oxadiazol-2-yl)phenyl)isoindolin-1-one] belongs < 5.00; to `Cc1c(-c2cc3c(cc2-c2ccc(F)cc2)C(=O)NC3)cc(C#N)n1C` [Compound 53, 4-(6-(4-fluorophenyl)-1-oxoisoindolin-5-yl)-1,5-dimethyl-1H-pyrrole-2-carbonitrile], < 5.00; to `O=C1NCc2cc(-c3ccc4nccn4c3)c(-c3ccc(F)cc3)cc21` [Compound 20, 6-(4-fluorophenyl)-5-(imidazo[1,2-a]pyridin-6-yl)isoindolin-1-one], 5.08. To `Cc1ncccc1-c1cc2c(cc1-c1ccc(F)cc1F)C(=O)NC2` [Compound 73, 6-(2,4-difluorophenyl)-5-(2-methylpyridin-3-yl)isoindolin-1-one] belongs 5.36. To `O=C1NCc2cc(-c3ccc4[nH]ccc4c3)c(-c3ccc(F)cc3)cc21` [Compound 49, 6-(4-fluorophenyl)-5-(1H-indol-5-yl)isoindolin-1-one] belongs < 5.00.

On to `CC1C=C(c2cc3c(cc2-c2ccc(F)cc2)C(=O)NC3)CC(C)N1` (centres unmarked) [Compound 62, 5-(2,6-dimethyl-1,2,3,6-tetrahydropyridin-4-yl)-6-(4-fluorophenyl)isoindolin-1-one], for which the pIC50 is < 5.00. In the case of `O=C1NCc2cc(-c3cccnc3C3CC3)c(-c3ccc(F)cc3)cc21` [Compound 43, 5-(2-cyclopropylpyridin-3-yl)-6-(4-fluorophenyl)isoindolin-1-one] it was < 5.00.

`N#Cc1cccc(-c2cc3c(cc2-c2ccc(F)cc2F)C(=O)NC3)c1` [Compound 107, 3-(6-(2,4-difluorophenyl)-1-oxoisoindolin-5-yl)benzonitrile] had a pIC50 of 6.23. In the case of `O=C1NCc2cc(C3CCNCC3)c(-c3ccc(F)cc3)cc21` [Compound 67, 6-(4-fluorophenyl)-5-(piperidin-4-yl)isoindolin-1-one] it was < 5.00. In the case of `N#Cc1cc(F)cc(-c2cc3c(cc2-c2ccc(F)cc2F)C(=O)NC3)c1` [Compound 106, 3-(6-(2,4-difluorophenyl)-1-oxoisoindolin-5-yl)-5-fluorobenzonitrile], the pIC50 was 5.85.
